Assay results as given in article PMC12481576, “Barbituric Acid Derivatives as Covalent Inhibitors of Leishmania braziliensis Dihydroorotate Dehydrogenase” (Journal of Medicinal Chemistry, 2025).
Read-outs that look alike come from different tables or passages of the source.

Columns and labels:
[1] = Cell viability / cytotoxicity assay (PrestoBlue, 72 h); type: cell-based; details: human
Experimental: THP-1 cells (American Type Cell Collection, #TIB-202) were acquired in 2019 and stored frozen in liquid nitrogen. The cells were then maintained in RPMI 1640 (Thermo Fisher Scientific, #S31800–022) at 37 °C in a 5% CO2 atmosphere and routinely tested for Mycoplasma contamination by PCR using the primers 5′-[…] and 5′-[…]. To test the toxicity of compounds, 5000 cells were added to 96-well plates with a final volume of 80 μL centrifuged at 400g for 2 min and incubated with 150 ng/mL of phorbol myristate acetate (Merck, #P8139) for 48 h. The medium was replaced, and after 24 h, the compounds were added and tested at decreasing concentrations starting from 200 μM (10 μL/well). After 72 h of incubation, 10 μL of PrestoBlue Cell Viability Reagent (Thermo Fisher Scientific, #A13262) was added per well. After adding the reagent, the cells were incubated for 2 h at 37 °C in a 5% CO2 atmosphere, and fluorescence readings were performed using the SpectraMax M3 reader (excitation at 560 nm and emission at 590 nm).

[2] = test system: Leishmania braziliensis promastigotes; assay: Leishmanicidal activity, promastigote growth (SYBR Green, 72 h); type: cell-based, Leishmania (V.) braziliensis (MHOM/BR/1975/M2904); details: Leishmania braziliensis, L. braziliensis promastigotes, max 200 μM
Experimental: The cultures were adjusted to 4 × 10^6 parasites per mL, and 50 μL of each culture was added on a test plate with 384 wells (Corning, #CLS3658), along with the controls and compounds to be tested. Previously diluted compounds in DMSO were added to plates in decreasing concentrations, with a maximum concentration of 200 μM. Parasites were exposed to a final concentration of DMSO in various dilutes (final = 0.5%), and the culture medium was used as the control for the experiment. […] After adding the lysis buffer, the plates were incubated in the dark for 2 h with gentle shaking. The readings were done using a SpectraMax M3 reader (excitation at 485 nm and emission at 535 nm).

LbDHODH = LbDHODH (Leishmania braziliensis, UniProt E9AI53); assay: biochemical; details: for IC50: LbDHODH
Experimental: To assess the ability of compounds 2a–2i to inhibit LbDHODH via covalent bond formation with Cys^131, we initially screened them at a concentration of 100 μM under two conditions: with and without a 4-h preincubation with the enzyme.
The experiments were performed in a 96-well microplate reader (SpectraMax Plus 384, Molecular Devices, USA), containing the […] of the buffer 60 mM DCIP, 50 mM Tris pH 8.15, 150 mM KCl, 0.1% Triton X-100, 50 μM DHO and 10 μM of LbDHODH at 165 nM. The reaction was monitored every 3 s at 610 nm over a period of 60 s, in triplicate, for the control and each concentration of the inhibitor. All assays were performed without incubation (0h) and with 4-h preincubation of the inhibitor with LbDHODH, using 5% DMSO (v/v) as control. […]. […] The resulting kobs values were plotted as a function of inhibitor concentration, and the data in the initial linear region was fit to determine the slope, which is kinact/KI. All regressions were performed with GraphPad Prism 9.

HsDHODH = molecular target: T1, HsDHODH (Homo sapiens, UniProt Q02127); assay: Selectivity assay: HsDHODH single-dose inhibition (DCIP reduction); type: biochemical
T1 construct: made in house
Experimental: […]. This finding highlights the potential of barbituric acid derivatives as selective inhibitors of LbDHODH.
Human DHODH expression and purification were conducted following a protocol previously established in our laboratory. The purification was carried out by affinity chromatography on a Ni-NTA Agarose column (Qiagen[…] Cat. No. 30210). […] The reaction was performed in triplicate, initiated by adding 195 μL of reaction buffer to 5 μL of HsDHODH protein solution for a final concentration of 20 nM enzyme. As a blank, 195 μL of reaction buffer was added to 5 μL of Buffer A. The reaction was monitored at 610 nm every 3 s over 60 s. As a control, 5 μL of enzyme was added to 195 μL of reaction medium without compound. Enzymatic velocity was calculated, and the percentage of relative enzymatic activity was determined relative to the control.

[3] = THP-1 cell line, 72 h, max 200 μM, read-out: CC50
[4] = 0 h, pH 8.15, read-out: LbDHODH Activity±SD (%)
[5] = 4 h, pH 8.15, read-out: LbDHODH Activity±SD (%)
[6] = IC50 0 h, without preincubation
[7] = read-out: Single dose (0h) % activity
[8] = read-out: Single dose (4h) % activity

LbDHODH, sequence (E9AI53 entry or part of it): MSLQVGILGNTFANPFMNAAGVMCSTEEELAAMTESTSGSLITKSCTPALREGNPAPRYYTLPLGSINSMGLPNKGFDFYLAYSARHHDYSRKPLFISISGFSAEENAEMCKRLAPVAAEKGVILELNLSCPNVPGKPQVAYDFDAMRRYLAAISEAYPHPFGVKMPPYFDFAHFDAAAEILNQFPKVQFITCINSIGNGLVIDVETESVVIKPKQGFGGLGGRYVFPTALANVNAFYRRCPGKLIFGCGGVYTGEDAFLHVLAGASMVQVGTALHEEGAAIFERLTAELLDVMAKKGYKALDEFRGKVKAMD
T1 sequence (Q02127 whole entry): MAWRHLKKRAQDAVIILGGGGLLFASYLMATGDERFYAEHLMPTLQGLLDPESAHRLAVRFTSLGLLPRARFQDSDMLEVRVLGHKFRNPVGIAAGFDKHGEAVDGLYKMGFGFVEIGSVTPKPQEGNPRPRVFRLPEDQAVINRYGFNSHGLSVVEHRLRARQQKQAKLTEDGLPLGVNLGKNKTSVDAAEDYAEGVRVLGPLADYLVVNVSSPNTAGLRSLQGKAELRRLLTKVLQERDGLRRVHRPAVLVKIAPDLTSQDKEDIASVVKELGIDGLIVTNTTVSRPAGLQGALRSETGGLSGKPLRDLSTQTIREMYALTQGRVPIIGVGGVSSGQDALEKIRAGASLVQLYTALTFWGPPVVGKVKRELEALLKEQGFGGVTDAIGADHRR

With `O=C1NC(=O)C(=Cc2ccc(C(=O)O)cc2)C(=O)N1` [2b, 4-((2,4,6-Trioxotetrahydropyrimidin-5(2H)-ylidene)methyl)benzoic Acid] the CC50 at 72 h [1, 3] was over 200 µM, the EC50 [2] was over 200 µM and the activity at 0.195312 µM (LbDHODH; [4]) was 98 ± 18%. It also gave an activity at 0.390625 µM (LbDHODH; [4]) of 96 ± 9%, an activity at 0.78125 µM (LbDHODH; [4]) of 100 ± 8% and an activity at 1.5625 µM (LbDHODH; [4]) of 96 ± 7%. For the same molecule, the activity at 3.125 µM (LbDHODH; [4]) was 97 ± 7%, the activity at 6.25 µM (LbDHODH; [4]) was 94 ± 18% and the activity at 12.5 µM (LbDHODH; [4]) was 97 ± 10%. The activity at 25 µM (LbDHODH; [4]) was 72 ± 10%, the activity at 50 µM (LbDHODH; [4]) was 72 ± 6% and the activity at 100 µM (LbDHODH; [4]) was 65 ± 5%. For the same molecule, the activity at 200 µM (LbDHODH; [4]) was 60 ± 22%, the activity at 400 µM (LbDHODH; [4]) was 86 ± 18% and the activity at 0.195312 µM (LbDHODH; [5]) was 94 ± 11%. For the same molecule, the activity at 0.390625 µM (LbDHODH; [5]) was 99 ± 11%, the activity at 0.78125 µM (LbDHODH; [5]) was 91 ± 20% and the activity at 1.5625 µM (LbDHODH; [5]) was 80 ± 8%. The activity at 3.125 µM (LbDHODH; [5]) was 90 ± 6%, the activity at 6.25 µM (LbDHODH; [5]) was 83 ± 13% and the activity at 12.5 µM (LbDHODH; [5]) was 65 ± 4%. The activity at 25 µM (LbDHODH; [5]) was 66 ± 4%, the activity at 50 µM (LbDHODH; [5]) was 29 ± 5% and the activity at 100 µM (LbDHODH; [5]) was 15 ± 1%. The activity at 200 µM (LbDHODH; [5]) was 13 ± 6%, the activity at 400 µM (LbDHODH; [5]) was 7 ± 2% and the IC50 (LbDHODH; [6]) was over 100 µM. It also gave an IC50 (LbDHODH; IC50 4 h, 4-h preincubation) of 22 ± 1 µM, an activity at 100 µM (LbDHODH; [7]) of 70 ± 10% and an activity at 100 µM (LbDHODH; [8]) of 10 ± 2%. It also gave an inhibition at 100 µM (LbDHODH; read-out: enzyme inhibition) of 90 to 93%, an activity at 100 µM (HsDHODH; [7]) of 105 ± 12% and an activity at 100 µM (HsDHODH; [8]) of 99 ± 10%.

Molecule `O=C1NC(=O)C(Cc2ccccc2)C(=O)N1` [3a, 5-Benzylpyrimidine-2,4,6(1H,3H,5H)-trione] has a CC50 at 72 h [1, 3] of over 200 µM, an EC50 [2] of over 200 µM and an IC50 (LbDHODH; [6]) of over 100 µM. The IC50 (LbDHODH; IC50 4 h, 4-h preincubation) was over 100 µM, the activity at 100 µM (LbDHODH; [7]) was 90 ± 10% and the activity at 100 µM (LbDHODH; [8]) was 70 ± 8%. The activity at 100 µM (HsDHODH; [7]) was 109 ± 12% and the activity at 100 µM (HsDHODH; [8]) was 97 ± 9%.

In the case of `O=C1NC(=O)C(Cc2ccc(C(=O)O)cc2)C(=O)N1` [3b, 4-((2,4,6-Trioxohexahydropyrimidin-5-yl)methyl)benzoic Acid], the CC50 at 72 h [1, 3] is reported as over 200 µM, the EC50 [2] is reported as over 200 µM and the IC50 (LbDHODH; [6]) is reported as over 100 µM. The IC50 (LbDHODH; IC50 4 h, 4-h preincubation) was over 100 µM, the activity at 100 µM (LbDHODH; [7]) was 109 ± 3% and the activity at 100 µM (LbDHODH; [8]) was 69 ± 2%. The activity at 100 µM (HsDHODH; [7]) was 92 ± 10% and the activity at 100 µM (HsDHODH; [8]) was 83 ± 8%.

Molecule `C[C@@H]1[C@H](O)[C@@H](C)/C=C/C=C/C=C/C=C/C=C/C=C/C=C/[C@H](O[C@@H]2O[C@H](C)[C@@H](O)[C@H](N)[C@@H]2O)C[C@@H]2O[C@](O)(C[C@@H](O)C[C@@H](O)[C@H](O)CC[C@@H](O)C[C@@H](O)CC(=O)O[C@H]1C)C[C@H](O)[C@H]2C(=O)O` [Amp. B, Amphotericin B, reference compound] has a CC50 at 72 h [1] of 6 ± 2 µM and an EC50 ([2]; read-out: EC50) of 0.4 ± 0.3 µM.
